In one test the target is T1, Sp-sNPFR (Scylla paramamosain, UniProt A0A345ZFF5).
T1 sequence (A0A345ZFF5 1-458): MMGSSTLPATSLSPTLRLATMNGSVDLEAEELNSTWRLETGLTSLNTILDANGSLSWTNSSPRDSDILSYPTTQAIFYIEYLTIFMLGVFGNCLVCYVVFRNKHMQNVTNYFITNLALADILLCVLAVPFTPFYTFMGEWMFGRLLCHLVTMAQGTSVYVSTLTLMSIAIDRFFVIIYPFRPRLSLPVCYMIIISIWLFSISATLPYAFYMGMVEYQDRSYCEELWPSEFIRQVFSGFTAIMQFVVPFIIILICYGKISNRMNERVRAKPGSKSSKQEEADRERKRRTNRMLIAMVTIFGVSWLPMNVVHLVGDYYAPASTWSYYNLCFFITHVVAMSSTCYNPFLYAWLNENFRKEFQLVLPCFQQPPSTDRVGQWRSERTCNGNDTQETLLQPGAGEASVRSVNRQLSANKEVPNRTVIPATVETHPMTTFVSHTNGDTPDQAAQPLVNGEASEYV
The experiment in a line: Ligand-receptor activation of signaling, dual-luciferase (pCRE-luc) reporter in HEK293T. It counts as cell-based. The settings on record: HEK293T transiently co-transfected with Sp-sNPFR/pEGFP-N1, pCRE-luc, pRL-TK; incubation 6 h; dual-luciferase read-out (Figure 3B legend: concentration of cAMP determined); nonlinear curve fitting; mean ± SD, three biological replicates. How it is done: Human embryonic kidney cell lines (HEK293T) were maintained in high glucose DMEM (Hyclone) supplemented with 10% fetal bovine serum (Gibco), 100 U/mL penicillin and 100 μg/mL streptomycin (Hyclone) at 37°C in a humidified incubator (Thermo) containing 5% CO2. Cells were seeded overnight in 6-well plates and transiently co-transfected with 1 μg of the Sp-sNPFR/pEGFP-N1 plasmid, 0.8 μg of the reporter gene pCRE-luc, and 0.4 μg of internal control gene pRL-TK using 5 μL Lipofectamine 2000 (Invitrogen) reagent following the manufacturer's protocols. Empty pEGFP-N1 plasmid was used for mock transfection.
HEK293T transiently co-transfected with Sp-sNPFR/pEGFP-N1 and dual-luciferase reporter system vectors were grown to 90% confluency in a 24-well plate. Cells were first treated with synthetic Sp-sNPF peptide mixture and the mixture containing 9 synthetic FLPs (GL Biochem, Table 2) at 1 μM each. Further, various concentrations of individual peptides were used to record dose-dependent curves. After incubation for 6 h, ligand-induced changes in luciferase activity were measured by GloMax® 20/20 Luminometer (Promega) with Dual-Luciferase® Reporter Assay System Kit (Promega).
All values are expressed as mean ± SD. Multiple sequence alignment of sNPFR sequences was performed with ClustalX and embellished by LaTEX TexShade ([57]). Data of ligand-receptor assays were analyzed using nonlinear curve fitting (GraphPad Prism 6.0) to obtain activation curves and EC50 values. The mRNA levels of Sp-Vg and Sp-VgR gene were normalized against the internal control β-actin, and the relative expression was calculated using the 2^−ΔΔCt method. Statistical significance was determined using one-way ANOVA followed by Duncan's multiple range tests. All statistical analyses were performed using IBM SPSS Statistics 20.0. Pictures were drawn by GraphPad Prism 6.0 and modified with Adobe Photoshop CS5.

For another test, the system named is denuded oocytes. Details: method as in 2 sources, one per row (each row's own in cited_ref): ref 76 = [76]; PMID 20382141; doi:10.1016/j.ydbio.2010.03.027; 76. Pang Y Thomas P . Role of G protein-coupled estrogen receptor 1, GPER, in inhibition of oocyte maturation by endogenous estrogens in zebrafish . Dev Biol. ( 2010 ) 342 : 194 – 206 . 10.1016/j.ydbi ||| ref 77 = [77]; PMID 21636738; doi:10.1095/biolreprod.111.091884; 77. Zhou R Tsang AH Lau SW Ge W . Pituitary adenylate cyclase-activating polypeptide (PACAP) and its receptors in the zebrafish ovary: evidence for potentially dual roles of pacap in controlling final. The settings on record: zebrafish, via GPER; cited from earlier work.

Where no end group is shown, it is not given here.

One may read the EC50 as the midpoint of the concentration-response curve. As for KDARTPALRLRF-NH2 [Sp-sNPF3], the EC50 on Sp-sNPFR came to 8.5 µM.

For `C[C@]12CC[C@@H]3c4ccc(O)cc4CC[C@H]3[C@@H]1CC[C@@H]2O` [E2, Estradiol], the “inhibition of spontaneous oocyte maturation” value in the test on denuded oocytes is “partly inhibited the spontaneous maturation of the denuded oocytes”. On to APPSMRLRF-NH2 [Sp-sNPF1], for which the 50% effective concentration (EC50) on Sp-sNPFR came out at 1.2 µM. As for SMPTLRLRF-NH2 [Sp-sNPF2], the EC50 on Sp-sNPFR was found to be 3.8 µM.

The record behind these values is article PMC6053504, “Inhibitory Role of the Mud Crab Short Neuropeptide F in Vitellogenesis and Oocyte Maturation via Autocrine/Paracrine Signaling” (Frontiers in Endocrinology, 2018).
